Experimental findings from PubChem BioAssay (NCI) are described below.

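These data come from cells grown in 96-well plates and exposed to compound for 48 hours at five concentrations. TGI: concentration producing complete growth inhibition.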 Bounds are passed on as bounds.

Test systems include HCC-2998 colon; HL-60(TB) leukemia; MDA-MB-231 breast; NCI/ADR-RES ovarian; OVCAR-8 ovarian; SNB-19 CNS; SNB-75 CNS; SR leukemia; UACC-257 melanoma; 786-0 renal; IGROV1 ovarian.
Experiment in all cases: DTP human tumour cell line panel, 48 h

Turning to `COc1ccc2c(c1)/C(=C/CCN(C)C)c1ccccc1S2`, the TGI in the assay on HCC-2998 colon, in the assay with HL-60(TB) leukemia, with MDA-MB-231 breast, with NCI/ADR-RES ovarian, in the assay on OVCAR-8 ovarian and in the assay on SNB-19 CNS was over 100 µM throughout. The TGI with SNB-75 CNS, in the assay with SR leukemia and with UACC-257 melanoma was over 100 µM each time.

Regarding `c1csc(-c2ccc(-c3cccc4nsnc34)s2)c1`, the TGI in the assay with 786-0 renal, in the assay on HCC-2998 colon, in the assay with MDA-MB-231 breast, in the assay with NCI/ADR-RES ovarian, in the assay on OVCAR-8 ovarian and with SNB-19 CNS was over 100 µM throughout. In addition, the TGI in the assay on SNB-75 CNS is over 100 µM; with SR leukemia, 52.2 µM; with UACC-257 melanoma, over 100 µM.

Turning to `NC(N)=N/N=C/c1c(-c2ccc(N)cc2)nc2sccn12`, the TGI was 62 µM in the assay with 786-0 renal; 47.9 µM in the assay on HL-60(TB) leukemia; over 100 µM in the assay on IGROV1 ovarian; 48.4 µM in the assay with MDA-MB-231 breast; over 100 µM in the assay on NCI/ADR-RES ovarian; over 100 µM with OVCAR-8 ovarian. Further, the TGI was 69.1 µM with SNB-19 CNS, 89.3 µM with SR leukemia and over 100 µM with UACC-257 melanoma.

Consider `Cc1ccc(N=NC(=Nc2ccccc2)c2ccc(N(CCC#N)CCC#N)cc2)cc1`, for which the TGI is over 100 µM in the assay on 786-0 renal; 48.6 µM in the assay on HCC-2998 colon; 57.1 µM in the assay on IGROV1 ovarian; 55.8 µM in the assay on MDA-MB-231 breast; over 100 µM in the assay on NCI/ADR-RES ovarian; over 100 µM in the assay with OVCAR-8 ovarian. In addition, the TGI was over 100 µM in the assay on SNB-19 CNS, over 100 µM in the assay on SNB-75 CNS, over 100 µM in the assay with SR leukemia and 54 µM with UACC-257 melanoma.

Turning to `CCCCCCc1cc2cc(-c3csc(CC#N)n3)c(=O)oc2cc1O`, the TGI with 786-0 renal is over 64.2 µM; with HCC-2998 colon it was over 100 µM; in the assay with HL-60(TB) leukemia it was over 66.9 µM; in the assay on IGROV1 ovarian, over 100 µM; with MDA-MB-231 breast, 55.2 µM; in the assay on NCI/ADR-RES ovarian, over 100 µM. Also, the TGI in the assay on OVCAR-8 ovarian, with SNB-19 CNS, in the assay on SNB-75 CNS, in the assay on SR leukemia and in the assay on UACC-257 melanoma was over 100 µM each time.

As for `[N-]=[N+]=NC[C@H]1OCO[C@H](CN=[N+]=[N-])[C@@H](OCCOCCCl)[C@@H]1OCCOCCCl`, the TGI in the assay with 786-0 renal, with HCC-2998 colon, in the assay on HL-60(TB) leukemia, in the assay on IGROV1 ovarian, in the assay with MDA-MB-231 breast and in the assay with NCI/ADR-RES ovarian was over 100 µM in each case. The TGI with OVCAR-8 ovarian, in the assay with SNB-19 CNS, in the assay with SNB-75 CNS, in the assay with SR leukemia and in the assay with UACC-257 melanoma was over 100 µM each time.

As for `COc1ccc(COCCOCc2nc(C#N)c(N)o2)cc1`, the TGI in the assay on 786-0 renal, with HCC-2998 colon, in the assay on HL-60(TB) leukemia, with IGROV1 ovarian, in the assay with MDA-MB-231 breast and in the assay with NCI/ADR-RES ovarian was over 100 µM in each case. Further, the concentration for total growth inhibition (TGI) in the assay on OVCAR-8 ovarian, in the assay with SNB-75 CNS, in the assay on SR leukemia and with UACC-257 melanoma was over 100 µM in each case.

With `CCOC(=O)C(SCCO)C(C(=O)OCC)n1cnc2c(=O)[nH]c(NC(C)=O)nc21` (centres undefined), the TGI with 786-0 renal, in the assay with HCC-2998 colon, with HL-60(TB) leukemia, in the assay on IGROV1 ovarian, with MDA-MB-231 breast and with NCI/ADR-RES ovarian was over 100 µM each time. Besides, the TGI with OVCAR-8 ovarian, with SNB-19 CNS, with SNB-75 CNS, with SR leukemia and in the assay with UACC-257 melanoma was over 100 µM throughout.

As for `O=C1CSC(c2ccc(Cl)cc2)N1c1ccc(Oc2ccc(Cl)cc2)c(Cl)c1` (centres undefined), the TGI in the assay with 786-0 renal is 30.5 µM; with HCC-2998 colon, 33.4 µM; with HL-60(TB) leukemia, 39 µM; in the assay on IGROV1 ovarian it was 31.2 µM; with MDA-MB-231 breast, 30.7 µM; with NCI/ADR-RES ovarian, 35.3 µM. Also, the TGI in the assay on OVCAR-8 ovarian came to 35.4 µM; in the assay with SNB-19 CNS it was 30.2 µM; in the assay on SNB-75 CNS it was 24.7 µM; with SR leukemia, 41 µM; in the assay with UACC-257 melanoma it was 33.2 µM.

Take `CN1C(=O)C2CCC(=O)N2c2cccnc21` (centres undefined): the TGI in the assay on 786-0 renal, in the assay on HCC-2998 colon, with HL-60(TB) leukemia, in the assay on IGROV1 ovarian, with MDA-MB-231 breast and in the assay with NCI/ADR-RES ovarian was over 100 µM in each case. Moreover, the TGI in the assay with OVCAR-8 ovarian, in the assay with SNB-19 CNS, in the assay with SR leukemia and in the assay on UACC-257 melanoma was over 100 µM each time.

For the compound `CCOC(=O)c1csc(NC(=O)CN2CCOCC2)n1`, the concentration for total growth inhibition (TGI) in the assay with HCC-2998 colon, in the assay on HL-60(TB) leukemia, in the assay on IGROV1 ovarian, with MDA-MB-231 breast, in the assay with NCI/ADR-RES ovarian and in the assay with OVCAR-8 ovarian was over 100 µM throughout. Moreover, the TGI in the assay on SNB-19 CNS, in the assay on SNB-75 CNS, in the assay with SR leukemia and with UACC-257 melanoma was over 100 µM throughout.

For the compound `Nc1nc(SCCc2ccccc2)c2[nH]cnc2n1`, the concentration for total growth inhibition (TGI) in the assay on 786-0 renal is over 100 µM; in the assay on HCC-2998 colon, 93.8 µM; in the assay on IGROV1 ovarian, over 100 µM; with MDA-MB-231 breast it was over 100 µM; in the assay on NCI/ADR-RES ovarian it was over 100 µM; in the assay with OVCAR-8 ovarian it was over 100 µM. In addition, the TGI was over 100 µM in the assay with SNB-19 CNS, over 100 µM with SNB-75 CNS, over 100 µM in the assay on SR leukemia and 67.5 µM in the assay on UACC-257 melanoma.

Turning to `CC(C)(C)OC(=O)NCCCCC1NC(=O)[C@@H]2Cc3c([nH]c4ccccc34)C(C3CCCCC3)N2C1=O` (some centres undefined), the TGI is over 100 µM with 786-0 renal; 67.3 µM in the assay on HCC-2998 colon; over 100 µM in the assay with HL-60(TB) leukemia; over 100 µM with IGROV1 ovarian; over 100 µM in the assay on MDA-MB-231 breast; over 100 µM in the assay with NCI/ADR-RES ovarian. Also, the TGI in the assay with OVCAR-8 ovarian was over 100 µM; in the assay with SNB-19 CNS, over 100 µM; in the assay with SR leukemia, 36.8 µM; with UACC-257 melanoma, over 100 µM.

Regarding `COC(=O)c1cc(=O)nc2sc3cccc(C)c3n12`, the TGI was 47.3 µM with 786-0 renal; 62.6 µM in the assay with HL-60(TB) leukemia; over 100 µM in the assay on IGROV1 ovarian; over 100 µM in the assay on MDA-MB-231 breast; over 100 µM with NCI/ADR-RES ovarian; 49.2 µM with OVCAR-8 ovarian. Moreover, the TGI with SNB-19 CNS, in the assay with SNB-75 CNS, with SR leukemia and in the assay on UACC-257 melanoma was over 100 µM throughout.

Regarding `COc1cc(C(=O)N(C(=S)OCc2ccccn2)c2ccccc2)cc(OC)c1OC`, the concentration for total growth inhibition (TGI) in the assay on 786-0 renal was over 100 µM; in the assay on HL-60(TB) leukemia, over 100 µM; with IGROV1 ovarian, 79.6 µM; in the assay on MDA-MB-231 breast, over 100 µM; in the assay on NCI/ADR-RES ovarian, over 100 µM; in the assay on OVCAR-8 ovarian, over 100 µM. Also, the total growth inhibition concentration (TGI) in the assay with SNB-19 CNS was over 100 µM; in the assay on SR leukemia, 49 µM; with UACC-257 melanoma, over 100 µM.

Consider `O=c1ccc(-c2ccccc2)n[nH]1`, for which the TGI in the assay on 786-0 renal, with HCC-2998 colon, in the assay on HL-60(TB) leukemia, with IGROV1 ovarian, with MDA-MB-231 breast and in the assay with NCI/ADR-RES ovarian was over 100 µM throughout. Also, the TGI in the assay on OVCAR-8 ovarian, in the assay on SNB-19 CNS, with SR leukemia and with UACC-257 melanoma was over 100 µM throughout.

For the compound `ClCCN1CCC2(CC1)SSC1(CCN(CCCl)CC1)S2`, the TGI with 786-0 renal is over 100 µM; with HL-60(TB) leukemia, 76.8 µM; in the assay with IGROV1 ovarian, over 100 µM; in the assay with MDA-MB-231 breast, over 100 µM; in the assay with NCI/ADR-RES ovarian it was over 100 µM; with OVCAR-8 ovarian it was over 100 µM. Also, the TGI with SNB-19 CNS, with SNB-75 CNS, in the assay with SR leukemia and in the assay on UACC-257 melanoma was over 100 µM in each case.

Turning to `COc1ccc(C2CC(c3c(O)ccc4ccccc34)=NN2C(C)=O)cc1OC` (centres undefined), the TGI in the assay on 786-0 renal was over 100 µM; in the assay with HCC-2998 colon, 54.3 µM; in the assay with IGROV1 ovarian, over 100 µM; with MDA-MB-231 breast, 56.5 µM; in the assay with NCI/ADR-RES ovarian it was over 100 µM; in the assay on OVCAR-8 ovarian, over 100 µM. Besides, the TGI with SNB-75 CNS was over 100 µM; with SR leukemia, 40.6 µM; in the assay with UACC-257 melanoma it was over 100 µM.

On to `C[C@]12CCC(O)CC1=CC[C@@H]1[C@@H]2CC[C@]2(C)C(=O)[C@H](n3ccnc3)C[C@@H]12` (some centres undefined), for which the TGI in the assay with 786-0 renal is over 100 µM; in the assay with HL-60(TB) leukemia, 40.7 µM; in the assay with IGROV1 ovarian it was over 100 µM; in the assay with MDA-MB-231 breast it was over 100 µM; in the assay with NCI/ADR-RES ovarian it was over 100 µM; in the assay on OVCAR-8 ovarian it was over 100 µM. The TGI with SNB-19 CNS, in the assay on SNB-75 CNS, in the assay with SR leukemia and with UACC-257 melanoma was over 100 µM in each case.

With `COc1ccc(N/N=C2\CCOc3ccc(C)cc3C2=O)cc1`, the TGI is 41.8 µM in the assay with 786-0 renal; 97.5 µM with HCC-2998 colon; over 100 µM in the assay on HL-60(TB) leukemia; over 100 µM in the assay on IGROV1 ovarian; over 100 µM in the assay on MDA-MB-231 breast; over 100 µM with NCI/ADR-RES ovarian. For the same compound, the TGI with OVCAR-8 ovarian is over 100 µM; in the assay with SNB-19 CNS, over 100 µM; with SR leukemia it was over 100 µM; in the assay with UACC-257 melanoma, 54.6 µM.

As a reminder, the TGI is the concentration giving total growth inhibition. Lower therefore signals more potent growth arrest.
